Reference: US12304898B2, “Quinolyl-containing compound and pharmaceutical composition, and use thereof” (PrimeGene (Beijing) Co., Ltd., priority 2019, dated 2025)

System: not listed separately
Assay: Pharmacokinetic experiment in rats after intragastric administration
Format: in vivo
Details: rat, po, female SD rats, 10 mg/kg, plasma
Experimental: The female SD rats were divided into groups, 3 rats in each group, and the example compounds 10, 12, 24, 57, 61, 89, 90, 93, 94, 96 (10 mg/kg) were administered by intragastric administration. Fasting overnight before administration, and the fasting time was from 10 hours before administration to 4 hours after administration. Blood was collected at 0.25, 0.5, 1, 2, 4, 8 and 24 hours after administration. Small animal anesthesia machine was used for isoflurane anesthesia. After that, 0.3 mL of whole blood was collected from the fundus venous plexus and placed in a heparin anticoagulation tube. The sample was centrifuged at 4° C., 4000 rpm, for 5 minutes, and the plasma was transferred to a centrifuge tube, and stored at −80° C. until analysis. The plasma sample was extracted by protein precipitation method, and the extract was processed and analyzed by LC/MS/MS.

Compound | AUC(0-inf) [ng·h/mL] | Cmax [ng/mL] | Tmax [h] | half-life [h]
COc1cc2c(Oc3ccc(NC(=O)C4(C(=O)Nc5ccc(F)cc5)CC4)cc3F)ccnc2cc1OCCCCCCSC(C)=O [Example 10, S-(6-((4-(2-fluoro-4-(1-((4-fluorophenyl)aminoformyl)cyclopropane-1-carboxamido)phenoxy)-6-methoxyquinolin-7-yl)oxy)hexyl)-acetylthioester] | 468 | 377 | 0.833 | 1.24
COc1cc2c(Oc3ccc(NC(=O)C4(C(=O)Nc5ccc(F)cc5)CC4)cc3F)ccnc2cc1OC/C=C/CCCCSC(C)=O [Example 24, (E)-S-(7-((4-(2-fluoro-4-(1-((4-fluorophenyl)aminoformyl)cyclopropane-1-carbamoyl)phenoxy)-6-methoxyquinolin-7-yl)oxy)heptyl-5-en-1-yl)acetylthio ester] | 1070 | 430 | 1.33 | 6.69
COc1cc2c(Oc3ccc(NC(=O)C4(C(=O)Nc5ccc(F)cc5)CC4)cc3F)ccnc2cc1OCCCCCNC(=O)CSC(C)=O [Example 57, S-(2-((5-((4-(2-fluoro-4-(1-((4-fluorophenyl)carbamoyl)cyclopropane-1-carboxamido)phenoxy)-6-methoxyquinolin-7-yl)oxy)pentyl)amino)-2-oxo-ethyl)thioacetate] | 2790 | 1590 | 0.33 | 6.42
COc1cc2c(Oc3ccc(NC(=O)C4(C(=O)Nc5ccc(F)cc5)CC4)cc3F)ccnc2cc1OCCCCNC(=O)CSC(C)=O [Example 61] | 175 | 121 | 0.5 | 1.84
COc1cc2c(Oc3ccc(NC(=O)C4(C(=O)Nc5ccc(F)cc5)CC4)cc3F)ccnc2cc1OCCCCCNC(=O)CSC(=O)C(C)(C)C [Example 89, S-(2-((5-((4-(2-fluoro-4-(1-((4-fluorophenyl)carbamoyl)cyclopropane-1-carboxamido)phenoxy)-6-methoxyquinolin-7-yl)oxo)phenyl)amino)-2-oxo-ethyl)2,2-dimethylthiopropionate] | 1650 | 1000 | 0.833 | 5.94
CCCCCCCC(=O)SCC(=O)NCCCCCOc1cc2nccc(Oc3ccc(NC(=O)C4(C(=O)Nc5ccc(F)cc5)CC4)cc3F)c2cc1OC [Example 90] | 689 | 852 | 0.333 | 4.25
COc1cc2c(Oc3ccc(NC(=O)C4(C(=O)Nc5ccc(F)cc5)CC4)cc3F)ccnc2cc1OCCCCCNC(=O)CSC(=O)[C@H](N)Cc1cn(C)c2ccccc12 [Example 93, S-(2-((5-((4-(2-fluoro-4-(1-((4-fluorophenyl)carbamoyl)cyclopropane-1-carboxamido)phenoxy)-6-methoxyquinolin-7-yl)oxy)pentyl)amino)-2-oxo-ethyl)-(R)-2-amino-3-(1-methyl-1H-indol-3-yl)thiopropionate benzenesulfonate] | 790 | 429 | 0.667 | 5.49
COc1cc2c(Oc3ccc(NC(=O)C4(C(=O)Nc5ccc(F)cc5)CC4)cc3F)ccnc2cc1OCCCCCNC(=O)CSC(=O)[C@@H](Cc1cn(C)c2ccccc12)NC(C)=O [Example 94, S-(2-((5-((4-(2-Fluoro-4-(1-((4-fluorophenyl)carbamoyl)cyclopropane-1-carboxamido)phenoxy)-6-methoxyquinolin-7-yl)oxy)pentyl)amino)-2-oxo-ethyl)-(R)-2-acetylamino-3-(1-methyl-1H-indol-3-yl)thiopropionate] | 499 | 289 | 0.5 | 6.14
COc1cc2c(Oc3ccc(NC(=O)C4(C(=O)Nc5ccc(F)cc5)CC4)cc3F)ccnc2cc1OCCCCCNC(=O)CSSC [Example 96, N-(3-fluoro-4-((6-methoxy-7-((5-(2-(methyldisulfanyl)acetylamino)pentyl)oxy)quinolin-4-yl)oxy)phenyl)-N-(4-fluorophenyl)cyclopropyl-1,1-diformamide] | 1040 | 724 | 0.417 | 6.92

Target: VEGFR2 (KDR) (Homo sapiens (Human), UniProt P35968)
Assay: VEGFR2 (KDR) mobility shift assay
Format: biochemical
Details: VEGFR2 0.5 nM, ATP 95 μM, read-out: IC50, inhibitory effect on kinase VEGFR2
Experimental: Detect compounds on VEGFR2 (KDR) by mobility shift assay. The initial test concentration of a compound was 1000 nM, 3 times dilution, 10 concentrations, and detection in duplicate. Nintedanib (Selleckchem, Cat. S1010) was used as the positive control compound. The operation method was briefly described as follows: kinase VEGFR2 (Carna, Cat. 08-191) at the final concentration of 0.5 nM and the test compound were mixed in the Optiplate-384F well plate and incubated for 10 minutes at room temperature. Then, ATP at a final concentration of 95 μM and 3 μM Kinase substrate 22 (Gill Biochemical (glbiochem), Cat. 112393) were added. After mixing, react at room temperature for 30 minutes. Add stop detection solution to terminate the reaction and read the conversion rate with Caliper EZ ReaderlI.
Wherein, Conversion %_sample refers to the conversion rate reading of the sample; Conversion %_min: the average value of the negative control wells, which represents the conversion rate readings of the wells without enzyme activity; Conversion %_max: the average value of the positive control wells, represents the conversion rate readings of the wells without compound inhibition.
Fitting the dose-response curve: Take the log of the concentration as the X-axis, and the percentage of inhibition rate as the Y-axis. The dose response curve was fitted by the analysis software GraphPad Prism 5 with log(inhibitor) vs. response—Variable slope to obtain the inhibitory activity (IC50) of each compound.

VEGFR2 (KDR), sequence (P35968 790-1356): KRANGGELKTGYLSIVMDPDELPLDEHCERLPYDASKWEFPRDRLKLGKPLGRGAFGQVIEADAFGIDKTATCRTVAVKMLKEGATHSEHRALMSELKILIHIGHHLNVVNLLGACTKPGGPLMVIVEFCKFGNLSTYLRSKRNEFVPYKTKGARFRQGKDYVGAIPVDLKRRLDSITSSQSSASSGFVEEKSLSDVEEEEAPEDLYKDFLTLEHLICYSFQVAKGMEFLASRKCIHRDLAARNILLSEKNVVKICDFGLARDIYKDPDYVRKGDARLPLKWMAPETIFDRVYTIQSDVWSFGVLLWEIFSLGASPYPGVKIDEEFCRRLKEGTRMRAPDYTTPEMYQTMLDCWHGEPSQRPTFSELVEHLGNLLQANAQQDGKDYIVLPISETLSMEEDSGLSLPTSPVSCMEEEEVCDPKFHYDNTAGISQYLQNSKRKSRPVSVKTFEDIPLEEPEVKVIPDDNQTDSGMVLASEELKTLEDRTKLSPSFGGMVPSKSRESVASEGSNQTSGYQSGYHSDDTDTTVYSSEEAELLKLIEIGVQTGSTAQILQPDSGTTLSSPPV

Compound | IC50 [nM]
COc1cc2c(Oc3ccc(NC(=O)C4(C(=O)Nc5ccc(F)cc5)CC4)cc3F)ccnc2cc1OCCCCSC(C)=O [Example 6, S-(4-((4-(2-Fluoro-4-(1-((4-fluorophenyl)aminoformyl)cyclopropane-1-carboxamido)phenoxy)-6-methoxyquinolin-7-yl)oxy)butyl)-acetylthioester] | 79
COc1cc2c(Oc3ccc(NC(=O)C4(C(=O)Nc5ccc(F)cc5)CC4)cc3F)ccnc2cc1OCCCCS [Example 7, N-(3-fluoro-4-((7-(4-mercaptobutoxy)-6-methoxyquinolin-4-yl)oxy)phenyl)-N-(4-fluorophenyl) cyclopropane-1,1-diformamide] | 57
COc1cc2c(Oc3ccc(NC(=O)C4(C(=O)Nc5ccc(F)cc5)CC4)cc3F)ccnc2cc1OC/C=C/CCCS [Example 27, (E)-N-(3-fluoro-4-((7-((6-mercaptohexyl-2-en-1-yl)oxy)-6-methoxyquinolin-4-yl)oxy)phenyl)-N-(4-fluorophenyl)cyclopropane-1,1-dimethylamid] | 33
COc1cc2c(Oc3ccc(NC(=O)C4(C(=O)Nc5ccc(F)cc5)CC4)cc3F)ccnc2cc1OCCCSc1nnc(S)s1 [Example 54, N-(3-fluoro-4-((7-(3-((5-thio-1,3,4-trithiazol-2-yl)sulfanyl)propoxy)-6-methoxyquinolin-4-yl)oxy)phenyl)-N-(4-fluorophenyl)cyclopropane-1,1-diformamide] | 54
COc1cc2c(Oc3ccc(NC(=O)C4(C(=O)Nc5ccc(F)cc5)CC4)cc3F)ccnc2cc1OCCNC(=O)NCCSC(C)=O [Example 55] | 30
COc1cc2c(Oc3ccc(NC(=O)C4(C(=O)Nc5ccc(F)cc5)CC4)cc3)ccnc2cc1OCCCCCNC(=O)CSC(C)=O [Example 65] | 13
CC(=O)SCCCCCCOc1cc2nccc(Oc3ccc(NC(=O)NC4CC4)c(Cl)c3)c2cc1C(N)=O [Example 86, S-(7-((6-carbamoyl-4-(3-chloro-4-(3-cyclopropylurea)phenoxy)quinolin-7-yl)oxy)hexyl)thioacetate] | 2.6
